pEC50: −log10 of the molar value. Several values for one entry are separate records, joined by “and”; a condition that tells them apart may be missing. Equal entries are not always repeated. Where two headings read alike, the source gives them in different places.
What was measured:
T. cruzi trypomastigotes = test: T. cruzi trypomastigote viability / rate of action assay (CellTiter-Glo bioluminescence); format: cell-based, Trypanosoma cruzi; conditions: for pEC50: Trypanosoma cruzi; for Hill slope / EC90/EC50: Trypomastigotes
Procedure: Tulahuen T. cruzi trypomastigotes were recovered 6 days post infection from the supernatant of harvested infected L6 cells cultures after 3 hours at 37°C. 90 μL of parasite culture at a density of 5 × 10^6 cells in RPMI 1640 media were dispensed into 96 Nunc flat bottom assay plates containing 10 μL of each compound.
Parasite viability was assessed upon 24, 48 and 72 hour incubation at 37°C in 5% CO2 by adding 50 μL of CellTiter-Glo viability reagent to white 96-well microplates. After signal stabilization, bioluminescence was read. Compound concentrations ranged from 0.1 μM to 50 μM and final maximal DMSO percentage in the well was 0.05%. Results were normalized to […] control columns in each plate.

T. cruzi epimastigotes = test: Quantification of ATP intracellular levels (CellTiter-Glo); format: cell-based, Trypanosoma cruzi; conditions: for ATP content, individual replicates: single replicates
Procedure: ATP was determined using the CellTiter-Glo assay. Optimum readout conditions and linearity of the assay were established for T. cruzi epimastigotes by testing different cell densities. The assay was linear up to 100,000 cells (in 90 μl) per well. 50,000 cells (from log phase cultures) per well were dispensed into 96-well white flat bottom microplates containing 10 μl of strasseriolide C at concentrations ranging from 0.4 to 6.25 μM and grown at 28°C for 72 hours with orbital shaking. ATP standard curves were obtained using concentrations ranging from 0.1 to 100 pmol of ATP disodium salt in 90 μl of LIT medium per well. Both samples and standards were assayed in triplicate. 70 μL of CellTiter-Glo solution were added to treated and control parasites and to the standard curve wells, and luminescence detection was recorded after 15 minutes incubation in a Tecan Infinite 200 microplate reader.
To determine if ATP production was affected by these compounds, we measured intracellular levels in T. cruzi epimastigotes. After 72-hour treatment with strasseriolide C at doses ranging from 0.4 to 6.25 μM, 70 μl of Cell-Titer Glo reagent were added with a multichannel pipette. Plates were incubated at 28°C for 10 minutes, after which luminescence was recorded. Luminescence relative light unit (RLU) values were interpolated in the ATP calibration curve (S4A Fig) and pmol of ATP per well were quantified. Considering proliferation inhibition due to strasseriolide C activity, values were normalized with respect to the number of parasites as determined by counting in a Neubauer chamber using phase contrast microscopy.

[1] = set-up: method as in PMID 34865639; conditions: murine model, cited from earlier work
[2] = 24 h, 0.0976562 µM, untreated 165925
[3] = 24 h, 0.195312 µM, untreated 165925
[4] = 24 h, 0.390625 µM, untreated 165925
[5] = 24 h, 0.78125 µM, untreated 165925
[6] = 24 h, 1.5625 µM, untreated 165925
[7] = 24 h, 3.125 µM, untreated 165925
[8] = 24 h, 6.25 µM, untreated 165925
[9] = 24 h, 12.5 µM, untreated 165925
[10] = 48 h, 0.0976562 µM, untreated 141819
[11] = 48 h, 0.195312 µM, untreated 141819
[12] = 48 h, 0.390625 µM, untreated 141819
[13] = 48 h, 0.78125 µM, untreated 141819
[14] = 48 h, 1.5625 µM, untreated 141819
[15] = 48 h, 3.125 µM, untreated 141819
[16] = 48 h, 6.25 µM, untreated 141819
[17] = 48 h, 12.5 µM, untreated 141819
[18] = 72 h, 0.0976562 µM, untreated 100126
[19] = 72 h, 0.195312 µM, untreated 100126
[20] = 72 h, 0.390625 µM, untreated 100126
[21] = 72 h, 0.78125 µM, untreated 100126
[22] = 72 h, 1.5625 µM, untreated 100126
[23] = 72 h, 3.125 µM, untreated 100126
[24] = 72 h, 6.25 µM, untreated 100126
[25] = 72 h, 12.5 µM, untreated 100126

O=C(Cn1ccnc1[N+](=O)[O-])NCc1ccccc1 [Benznidazole, benznidazole]
RLU Average, trypomastigote viability (T. cruzi trypomastigotes; [2]): 168859 RLU | RLU Average, trypomastigote viability (T. cruzi trypomastigotes; [3]): 163337 RLU | RLU Average, trypomastigote viability (T. cruzi trypomastigotes; [4]): 166320 RLU | RLU Average, trypomastigote viability (T. cruzi trypomastigotes; [5]): 165144 RLU | RLU Average, trypomastigote viability (T. cruzi trypomastigotes; [6]): 164063 RLU | RLU Average, trypomastigote viability (T. cruzi trypomastigotes; [7]): 161383 RLU | RLU Average, trypomastigote viability (T. cruzi trypomastigotes; [8]): 134179 RLU | RLU Average, trypomastigote viability (T. cruzi trypomastigotes; [9]): 39621 RLU | RLU Average, trypomastigote viability (T. cruzi trypomastigotes; 24 h, 25 µM, untreated 165925): 10652 RLU | RLU Average, trypomastigote viability (T. cruzi trypomastigotes; 24 h, 50 µM, untreated 165925): 5606 RLU | RLU Average, trypomastigote viability (T. cruzi trypomastigotes; [10]): 139946 RLU | RLU Average, trypomastigote viability (T. cruzi trypomastigotes; [11]): 134140 RLU | RLU Average, trypomastigote viability (T. cruzi trypomastigotes; [12]): 131074 RLU | RLU Average, trypomastigote viability (T. cruzi trypomastigotes; [13]): 112587 RLU | RLU Average, trypomastigote viability (T. cruzi trypomastigotes; [14]): 83947 RLU | RLU Average, trypomastigote viability (T. cruzi trypomastigotes; [15]): 48357 RLU | RLU Average, trypomastigote viability (T. cruzi trypomastigotes; [16]): 13088 RLU | RLU Average, trypomastigote viability (T. cruzi trypomastigotes; [17]): 3643 RLU | RLU Average, trypomastigote viability (T. cruzi trypomastigotes; 48 h, 25 µM, untreated 141819): 1831 RLU | RLU Average, trypomastigote viability (T. cruzi trypomastigotes; 48 h, 50 µM, untreated 141819): 1028 RLU | RLU Average, trypomastigote viability (T. cruzi trypomastigotes; [18]): 104132 RLU | RLU Average, trypomastigote viability (T. cruzi trypomastigotes; [19]): 98515 RLU | RLU Average, trypomastigote viability (T. cruzi trypomastigotes; [20]): 89377 RLU | RLU Average, trypomastigote viability (T. cruzi trypomastigotes; [21]): 67508 RLU | RLU Average, trypomastigote viability (T. cruzi trypomastigotes; [22]): 34320 RLU | RLU Average, trypomastigote viability (T. cruzi trypomastigotes; [23]): 15352 RLU | RLU Average, trypomastigote viability (T. cruzi trypomastigotes; [24]): 4824 RLU | RLU Average, trypomastigote viability (T. cruzi trypomastigotes; [25]): 2711 RLU | RLU Average, trypomastigote viability (T. cruzi trypomastigotes; 72 h, 25 µM, untreated 100126): 1262 RLU | RLU Average, trypomastigote viability (T. cruzi trypomastigotes; 72 h, 50 µM, untreated 100126): 683 RLU | pEC50 (T. cruzi trypomastigotes; 24 h): 5.05 | pEC50 (T. cruzi trypomastigotes; 48 h): 5.69 | pEC50 (T. cruzi trypomastigotes; 72 h): 5.94 | Hill slope (T. cruzi trypomastigotes; 24 h): 3.93 | Hill slope (T. cruzi trypomastigotes; 48 h): 1.66 | Hill slope (T. cruzi trypomastigotes; 48 h, listed as benznidazole): below 2.1 | Hill slope (T. cruzi trypomastigotes; 72 h): 2.07 | Hill slope (T. cruzi trypomastigotes; 72 h, listed as benznidazole): below 2.1

C/C1=C\[C@H](C)C(=O)C[C@@H](O)/C(C)=C/[C@H](C)C[C@@H](C)CC[C@@H]([C@@H](C)C(=O)O)OC(=O)[C@@H](C)C1 [Strasseriolide C, strasseriolide C]
RLU Average, trypomastigote viability (T. cruzi trypomastigotes; [2]): 163790 RLU | RLU Average, trypomastigote viability (T. cruzi trypomastigotes; [3]): 163102 RLU | RLU Average, trypomastigote viability (T. cruzi trypomastigotes; [4]): 158420 RLU | RLU Average, trypomastigote viability (T. cruzi trypomastigotes; [5]): 147331 RLU | RLU Average, trypomastigote viability (T. cruzi trypomastigotes; [6]): 130562 RLU | RLU Average, trypomastigote viability (T. cruzi trypomastigotes; [7]): 103284 RLU | RLU Average, trypomastigote viability (T. cruzi trypomastigotes; [8]): 45263 RLU | RLU Average, trypomastigote viability (T. cruzi trypomastigotes; [9]): 26648 RLU | RLU Average, trypomastigote viability (T. cruzi trypomastigotes; 24 h, 25 µM, untreated 165925): 23620 RLU | RLU Average, trypomastigote viability (T. cruzi trypomastigotes; 24 h, 50 µM, untreated 165925): 23277 RLU | RLU Average, trypomastigote viability (T. cruzi trypomastigotes; [10]): 140243 RLU | RLU Average, trypomastigote viability (T. cruzi trypomastigotes; [11]): 138438 RLU | RLU Average, trypomastigote viability (T. cruzi trypomastigotes; [12]): 137289 RLU | RLU Average, trypomastigote viability (T. cruzi trypomastigotes; [13]): 133179 RLU | RLU Average, trypomastigote viability (T. cruzi trypomastigotes; [14]): 131008 RLU | RLU Average, trypomastigote viability (T. cruzi trypomastigotes; [15]): 112009 RLU | RLU Average, trypomastigote viability (T. cruzi trypomastigotes; [16]): 31326 RLU | RLU Average, trypomastigote viability (T. cruzi trypomastigotes; [17]): 8227 RLU | RLU Average, trypomastigote viability (T. cruzi trypomastigotes; 48 h, 25 µM, untreated 141819): 5426 RLU | RLU Average, trypomastigote viability (T. cruzi trypomastigotes; 48 h, 50 µM, untreated 141819): 4626 RLU | RLU Average, trypomastigote viability (T. cruzi trypomastigotes; [18]): 97547 RLU | RLU Average, trypomastigote viability (T. cruzi trypomastigotes; [19]): 99515 RLU | RLU Average, trypomastigote viability (T. cruzi trypomastigotes; [20]): 99635 RLU | RLU Average, trypomastigote viability (T. cruzi trypomastigotes; [21]): 98868 RLU | RLU Average, trypomastigote viability (T. cruzi trypomastigotes; [22]): 97232 RLU | RLU Average, trypomastigote viability (T. cruzi trypomastigotes; [23]): 91895 RLU | RLU Average, trypomastigote viability (T. cruzi trypomastigotes; [24]): 17556 RLU | RLU Average, trypomastigote viability (T. cruzi trypomastigotes; [25]): 4224 RLU | RLU Average, trypomastigote viability (T. cruzi trypomastigotes; 72 h, 25 µM, untreated 100126): 2493 RLU | RLU Average, trypomastigote viability (T. cruzi trypomastigotes; 72 h, 50 µM, untreated 100126): 1583 RLU | pEC50 (T. cruzi trypomastigotes; 24 h): 5.48 | pEC50 (T. cruzi trypomastigotes; 48 h): 5.35 | pEC50 (T. cruzi trypomastigotes; 72 h): 5.32 | EC90/EC50 (T. cruzi trypomastigotes; 24 h): 3.20 | Hill slope (T. cruzi trypomastigotes; 24 h): 2.11 | EC90/EC50 (T. cruzi trypomastigotes; 48 h): 1.72 | Hill slope (T. cruzi trypomastigotes; 48 h): 4.10 | Hill slope (T. cruzi trypomastigotes; 48 h, listed as C): 4.1 | EC90/EC50 (T. cruzi trypomastigotes; 48 h, listed as strasseriolide C): 1.7 | EC90/EC50 (T. cruzi trypomastigotes; 72 h): 1.42 | Hill slope (T. cruzi trypomastigotes; 72 h): 6.31 | Hill slope (T. cruzi trypomastigotes; 72 h, listed as C): 6.3 | EC90/EC50 (T. cruzi trypomastigotes; 72 h, listed as strasseriolide C): 1.4 | ATP content, Average (pmol ATP/cell) (T. cruzi epimastigotes; 0.390625 µM): 1.759e-5 pmol ATP/cell | ATP content, individual replicates (T. cruzi epimastigotes; 0.390625 µM): 1.792e-5 pmol ATP/cell and 1.833e-5 pmol ATP/cell and 1.6509e-5 pmol ATP/cell | ATP content, Average (pmol ATP/cell) (T. cruzi epimastigotes; 0.78125 µM): 1.732e-5 pmol ATP/cell | ATP content, individual replicates (T. cruzi epimastigotes; 0.78125 µM): 1.756e-5 pmol ATP/cell and 1.79e-5 pmol ATP/cell and 1.649e-5 pmol ATP/cell | ATP content, Average (pmol ATP/cell) (T. cruzi epimastigotes; 1.5625 µM): 1.679e-5 pmol ATP/cell | ATP content, individual replicates (T. cruzi epimastigotes; 1.5625 µM): 1.677e-5 pmol ATP/cell and 1.743e-5 pmol ATP/cell and 1.6178e-5 pmol ATP/cell | ATP content, Average (pmol ATP/cell) (T. cruzi epimastigotes; 3.125 µM): 1.67e-5 pmol ATP/cell | ATP content, individual replicates (T. cruzi epimastigotes; 3.125 µM): 1.693e-5 pmol ATP/cell and 1.736e-5 pmol ATP/cell and 1.58e-5 pmol ATP/cell | ATP content, Average (pmol ATP/cell) (T. cruzi epimastigotes; 6.25 µM): 1.53e-5 pmol ATP/cell | ATP content, individual replicates (T. cruzi epimastigotes; 6.25 µM): 1.501e-5 pmol ATP/cell and 1.61e-5 pmol ATP/cell and 1.48e-5 pmol ATP/cell | cellular ATP pool (T. cruzi epimastigotes; epimastigotes, 72 h, 0.4 to 6.25 μM, normalized to parasite number): discrete reduction

C/C1=C\[C@H](C)CC[C@@H](O)/C(C)=C/[C@H](C)C[C@@H](C)CC[C@@H]([C@@H](C)C(=O)O)OC(=O)[C@@H](C)C1 [Strasseriolide B, strasseriolide B]
toxicity in vivo ([1]; listed as B): toxic in vivo | toxicity in vivo ([1]; listed as strasseriolide B): toxic
